Like-named read-outs stand apart in the source and are kept apart here.

Test [1] addresses T1, Human neutrophil elastase (HNE) (Homo sapiens, UniProt P08246).
T1 construct: gene ELANE; isolated enzyme, single polypeptide chain
T1 sequence (P08246 30-247): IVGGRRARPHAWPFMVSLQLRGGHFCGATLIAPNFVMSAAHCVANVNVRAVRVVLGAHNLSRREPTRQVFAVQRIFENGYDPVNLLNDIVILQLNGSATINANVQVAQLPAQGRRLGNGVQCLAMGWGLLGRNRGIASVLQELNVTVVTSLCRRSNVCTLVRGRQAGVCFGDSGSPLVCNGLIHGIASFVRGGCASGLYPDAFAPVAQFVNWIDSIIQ
Nature of the test: fluorometric protease assay, MeO-Suc-Ala-Ala-Pro-Val-AMC. The test is classed as biochemical. An excerpt: fluorometric protease assay, MeO-Suc-Ala-Ala-Pro-Val-AMC on Human neutrophil elastase (HNE)

The subject of a further test is T2, chymotrypsin.
T2 construct: gene CTRB1; enzyme from human pancreas
Nature of the test: fluorometric protease assay, Suc-Ala-Ala-Pro-Phe-AMC. The following applies: […] Tris-HCl, […] NaCl pH […] °C; read-out: IC50 ± SD (μM) / Chymotrypsin. The test is classed as biochemical, Homo sapiens. An excerpt:
fluorometric protease assay, Suc-Ala-Ala-Pro-Phe-AMC on chymotrypsin

Another test relates to T3, kallikrein.
T3 construct: gene KLKB1
Nature of the test: fluorometric protease assay, H-Pro-Phe-Arg-AMC. The test is classed as biochemical, Homo sapiens. The following applies: […] Tris-HCl, […] NaCl pH […] °C; read-out: IC50 ± SD (μM) / Kallikrein. An excerpt: fluorometric protease assay, H-Pro-Phe-Arg-AMC on kallikrein

In a further test the target is T4, urokinase (Homo sapiens, UniProt P00749).
T4 construct: gene PLAU; isolated enzyme; source not clearly stated
Nature of the test: fluorometric protease assay, Z-Gly-Gly-Arg-AMC. The class given is biochemical. The following applies: read-out: IC50 ± SD (μM) / Urokinase. An excerpt: fluorometric protease assay, Z-Gly-Gly-Arg-AMC on urokinase

The next test deals with T5, trypsin.
T5 construct: gene PRSS1; enzyme from human pancreas
The test is described as follows: fluorometric protease assay, Z-Gly-Gly-Arg-AMC. The test is classed as biochemical, Homo sapiens. The following applies: […] Tris-HCl, […] NaCl pH […] °C; read-out: IC50 ± SD (μM) / Trypsin. An excerpt: fluorometric protease assay, Z-Gly-Gly-Arg-AMC on trypsin

On to `CCC1(CC)C(=O)N(c2ccc(C(=O)OCc3ccccc3)cc2)C1=O` [compound 8], for which the IC50 in test [1] (read-out: IC50 ± SD) was found to be 0.96 ± 0.13 nM.
In the case of `CCC1(CC)C(=O)N(c2ccc(C(=O)NCCCNc3ccc([N+](=O)[O-])c4nonc34)cc2)C1=O` [compound 17], the IC50 in the test on chymotrypsin is above 0.5 µM; in test [1] (read-out: IC50 ± SD (nM) / HNE), 0.64 ± 0.03 nM; with kallikrein it was above 3 µM; on urokinase, above 2 µM; with trypsin it was above 1 µM.
As to `CCC1(CC)C(=O)N(c2ccc(COc3ccc4ccc(=O)oc4c3)cc2)C1=O` [compound 1, 3,3-diethyl-1-(4-(((2-oxo-2H-chromen-7-yl)oxy)methyl)phenyl)-azetidine-2,4-dione], the IC50 was above 8 µM with chymotrypsin, 0.42 ± 0.09 nM in test [1] (read-out: IC50 ± SD), above 50 µM at urokinase and above 1 µM in the test with trypsin.
As for `CCC1(CC)C(=O)N(c2ccc(CSc3nc4cc(C(=O)NCCCNc5ccc([N+](=O)[O-])c6nonc56)ccc4o3)cc2)C1=O` [compound 16, 2-((4-(3,3-diethyl-2,4-dioxoazetidin-1-yl)benzyl)thio)-N-(3-((7nitrobenzo[c][1,2,5]oxadiazol-4-yl)amino)propyl)benzo[d]oxazole-5-carboxamide], the IC50 is 0.85 ± 0.1 nM in test [1] (read-out: IC50 ± SD (nM) / HNE), above 5 µM in the test on kallikrein, above 2 µM on urokinase and above 1 µM in the test on trypsin.
Turning to `CCC1(CC)C(=O)N(c2ccc(C(=O)O)cc2)C1=O` [compound 9], in test [1] (read-out: IC50 ± SD), the IC50 was found to be 14.7 ± 5.55 nM.
Regarding `CCC1(CC)C(=O)N(c2ccc(CBr)cc2)C1=O` [compound 6], in test [1] (read-out: IC50 ± SD), the IC50 was 0.64 ± 0.03 nM.

The values above are taken from publication PMC7238052, “Novel and Modified Neutrophil Elastase Inhibitor Loaded in Topical Formulations for Psoriasis Management” (Pharmaceutics, 2020).
